Results taken from patent US10253069B2, “Compositions and methods for regulating arterial tone” (University of Virginia Patent Foundation, priority 2012, dated 2019).

Key:
eNOS and Hb α complex = target: T1, eNOS and Hb α complex (Mus musculus, UniProt P70313); experiment: Proximity ligation assay for eNOS and Hb α on thoracodorsal arteries
T1 construct: from tissue; host or cells: isolated mouse thoracodorsal arteries
T1 sequence (P70313 2-1202 limits assumed): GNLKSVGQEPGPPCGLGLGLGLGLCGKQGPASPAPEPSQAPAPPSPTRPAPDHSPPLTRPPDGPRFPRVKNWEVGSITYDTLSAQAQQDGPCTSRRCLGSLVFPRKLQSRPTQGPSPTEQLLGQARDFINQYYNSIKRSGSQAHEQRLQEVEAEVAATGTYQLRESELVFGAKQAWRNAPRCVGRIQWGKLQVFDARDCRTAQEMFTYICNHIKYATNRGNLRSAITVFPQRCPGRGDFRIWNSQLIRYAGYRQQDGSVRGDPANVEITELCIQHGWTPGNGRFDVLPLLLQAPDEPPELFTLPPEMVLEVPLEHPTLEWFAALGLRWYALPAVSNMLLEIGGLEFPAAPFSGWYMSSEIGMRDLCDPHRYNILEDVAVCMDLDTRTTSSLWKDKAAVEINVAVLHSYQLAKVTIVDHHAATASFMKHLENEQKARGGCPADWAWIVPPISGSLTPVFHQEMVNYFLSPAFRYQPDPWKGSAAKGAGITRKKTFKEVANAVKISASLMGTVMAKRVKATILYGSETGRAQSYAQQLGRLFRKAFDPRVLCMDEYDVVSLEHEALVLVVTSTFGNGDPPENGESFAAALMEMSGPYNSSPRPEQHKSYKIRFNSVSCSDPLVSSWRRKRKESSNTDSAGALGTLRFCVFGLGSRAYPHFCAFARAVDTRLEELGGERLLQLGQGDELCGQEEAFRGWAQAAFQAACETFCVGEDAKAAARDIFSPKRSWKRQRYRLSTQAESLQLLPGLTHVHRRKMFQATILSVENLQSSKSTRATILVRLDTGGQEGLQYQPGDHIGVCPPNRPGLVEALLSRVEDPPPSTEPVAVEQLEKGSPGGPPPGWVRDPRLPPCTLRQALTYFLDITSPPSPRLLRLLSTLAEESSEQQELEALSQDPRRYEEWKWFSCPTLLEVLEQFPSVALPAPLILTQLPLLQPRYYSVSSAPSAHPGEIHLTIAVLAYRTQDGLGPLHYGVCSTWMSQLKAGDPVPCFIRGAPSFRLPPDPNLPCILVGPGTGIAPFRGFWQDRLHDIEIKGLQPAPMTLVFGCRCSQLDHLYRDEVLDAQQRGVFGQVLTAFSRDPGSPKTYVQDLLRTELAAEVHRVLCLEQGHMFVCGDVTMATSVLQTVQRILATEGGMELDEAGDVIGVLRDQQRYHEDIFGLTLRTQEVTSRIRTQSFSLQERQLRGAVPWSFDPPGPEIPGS
Description: Isolated thoracodorsal arteries were perfused with Scr X or Hb α X peptide (5 μmol/L) for 20 minutes and immediately immersed in 4% paraformaldehyde, paraffin-embedded and sectioned as previously described^12. Next, sections were de-paraffinized, blocked and incubated with 1:500 mouse anti-eNOS (BD Biosciences), 1:500 rabbit anti-Hb α and 1:500 mouse anti-caveolin-1 (BD Biosciences) primary antibodies overnight at 4° C. The following day, secondary antibodies conjugated with oligonucleotide PLA probes were added, ligated and rolling circle amplification with fluorescent oligonucleotides identified positive interaction sites as previously described^9. All images were visualized and captured using an Olympus Fluoview 1000 confocal microscope. For proximity ligation assay quantitation, positive interactions indicated by red punctates on the endothelium were counted and divided by the circumference of the lumen using Metamorph software.

abdominal aortic rings = experiment: Abdominal aorta ring assay; design: species or system mouse; details: compared to untreated aortas or aortas treated with Scr X
Description: Abdominal aortas were isolated, cut into 2 mm wide rings and mounted on a DMT myograph system with low bath volumes as previously described^16. Briefly, rings were stretched at 1.2× resting length in Krebs solution and allowed to equilibrate for 30 min at 37° C. prior to depolarization with […] K^+ [i]. Following the high K^+ contraction, rings were returned to Krebs solution and incubated with 5 μmol/L Scr X or Hb α X peptide for 20 minutes. Cumulative concentrations of phenylephrine (PE) (10^−10-10^−4 mol/L) were added to the rings and the magnitude of the tension response measured in milli-newtons.

[1] = test system: thoracodorsal arteries from eNOS−/− animals; experiment: Pressure myography on thoracodorsal arteries from eNOS−/− mice; design: species or system mouse

In the case of “Peptide LSFPTTKTYF (SEQ ID NO:2), first ten amino acids of the Hb α sequence, with HIV-tat tag YGRKKRRQRRR at the N-terminus [Hb α X]”, the Inhibition of association (eNOS and Hb α complex; ex vivo studies) is reported as greater than 90%, the “Colocalization / protein-protein interaction between eNOS and Hb α” value (eNOS and Hb α complex; thoracodorsal arteries, 5 μmol/L peptide, 20 minutes) is reported as “significant loss of protein-protein interaction” and the “Phenylephrine dose response curves” value (abdominal aortic rings) is reported as “no significant change”. The “Magnitude of phenylephrine induced constriction” value [1] was “no alteration”.
